This passage reports relative activity and Km results from paper PMC7525151 (Frontiers in Microbiology, 2020).

The structures appear in SMILES notation.

In test [1] the target is T1, TeFum (Thermosynechococcus vestitus, UniProt Q8DIP7). The experiment in a line: relative activity with effector, A240 absorbance. Also noted: gene fumC. The following applies: activator in the fumarate direction; 0.14 mM fumarate, pH 7.0, 50 °C; sodium salt.
Test [2] concerns the target T1, TeFum. The experiment in a line: A240 absorbance, Michaelis-Menten fit. The following applies: fumarate hydration; 100 mM Tris-HCl pH 7.0; 50 °C. The test is classed as biochemical. Also noted: gene fumC; N-terminal GST tag (pGEX6P-1, BamHI-XhoI) kept; codon-optimized synthetic gene; E. coli BL21(DE3); glutathione-Sepharose purified.
The target of another test is T2, CmFUM (Cyanidioschyzon merolae, UniProt M1VAI8).
T2 construct: gene CYME_CMD058C; N-terminal GST tag (pGEX6P-1, BamHI-XhoI) kept; codon-optimized synthetic gene; E. coli BL21(DE3); glutathione-Sepharose purified
T2 sequence (M1VAI8 1-553): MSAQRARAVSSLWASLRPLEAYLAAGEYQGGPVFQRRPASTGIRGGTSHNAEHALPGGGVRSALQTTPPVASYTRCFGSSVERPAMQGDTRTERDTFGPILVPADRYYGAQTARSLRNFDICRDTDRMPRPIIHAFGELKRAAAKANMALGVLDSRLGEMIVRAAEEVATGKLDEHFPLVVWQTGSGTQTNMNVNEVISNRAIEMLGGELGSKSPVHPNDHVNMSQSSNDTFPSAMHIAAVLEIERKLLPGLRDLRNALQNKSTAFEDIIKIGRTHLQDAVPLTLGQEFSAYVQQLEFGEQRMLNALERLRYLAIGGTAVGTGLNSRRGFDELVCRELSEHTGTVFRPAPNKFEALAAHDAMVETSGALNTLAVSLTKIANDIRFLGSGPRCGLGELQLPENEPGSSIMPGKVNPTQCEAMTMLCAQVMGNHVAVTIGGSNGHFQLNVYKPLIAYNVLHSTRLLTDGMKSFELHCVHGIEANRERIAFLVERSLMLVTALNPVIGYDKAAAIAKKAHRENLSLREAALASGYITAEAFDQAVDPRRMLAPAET
In words: A240 absorbance, Michaelis-Menten fit. The test is classed as biochemical. The following applies: fumarate hydration; 100 mM Tris-HCl pH 7.5; 52 °C.

T1 sequence (Q8DIP7 whole entry): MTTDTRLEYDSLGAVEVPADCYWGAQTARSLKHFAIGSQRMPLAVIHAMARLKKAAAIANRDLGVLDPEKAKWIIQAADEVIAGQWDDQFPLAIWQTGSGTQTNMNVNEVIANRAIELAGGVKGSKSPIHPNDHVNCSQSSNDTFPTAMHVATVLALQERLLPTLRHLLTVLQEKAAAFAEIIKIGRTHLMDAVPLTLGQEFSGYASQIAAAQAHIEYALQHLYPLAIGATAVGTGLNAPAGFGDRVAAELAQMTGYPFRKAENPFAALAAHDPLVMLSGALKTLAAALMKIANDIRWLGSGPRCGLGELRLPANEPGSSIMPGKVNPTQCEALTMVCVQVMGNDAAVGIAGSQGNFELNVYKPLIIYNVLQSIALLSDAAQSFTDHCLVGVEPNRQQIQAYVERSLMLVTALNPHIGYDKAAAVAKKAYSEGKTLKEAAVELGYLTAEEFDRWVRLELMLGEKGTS

On to `CC(=O)C(=O)O` [pyruvate], for which, on TeFum [1], the relative activity result is “pyruvate increased the TeFum activity for fumarate (Figure 4B)”.

With `O=C(O)/C=C/C(=O)O` [fumarate], the Km (as a rule, the concentration of substrate that gives half-maximal velocity) on TeFum [2] was 140 ± 20 µM; on CmFUM, 270 ± 50 µM.
